Measured values as given in US20230220410A1, “PLANTS TOLERANT TO BROAD RANGE OF PATHOGENS” (RAMOT AT TEL-AVIV UNIVERSITY LTD., priority 2020, published 2023).
Entries after “also recorded” stand apart in the source; their conditions may differ. Where two headings read alike, the source gives them in different places.

Assays:
WT (Col-0) Arabidopsis [1] = assay: Root elongation / root growth-rate inhibition on MS with the substance, wild type; format: in vivo, Arabidopsis thaliana
From the text: (§1) The Arabidopsis strains used were all in the Columbia-0 (Col-0) background. The gain of function lines psx00478 and psx08098 containing pBIG2113SF binary vector, expressing a single cDNA under 35S promoter, were ordered from FOX library (Takanari I. et al., 2006. ibid). Transgenic lines were generated using pBINPLUS (van Engelen F A et al., 1995. Transgenic Research 4, 288-290), in which AT2G19750 gene was cloned downstream of the 35S promoter, and transformed to WT Col-0 via Agrobacterium cv3101 mediated transformation. The presence of the transgene was confirmed by PCR with specific primers for S30. Seeds were cultivated in Petri plates using medium containing 0.8% agar, half-strength Murashige and Skoog salts (MS), and 1% sucrose, pH 5.7. The Petri plates were placed in chambers at 22° C. under light/dark conditions of 16 h white light at 75 mol m^2 sec^−1 and 8 h darkness, at 55% relative humidity. For root phenotype experiments, plates were placed vertically in the chambers.
To calculate the percentage of growth inhibition, seeds were germinated on MS containing the following concentrations of I3C: 0, 50, 100, 200, 300, 400, 500 and 750 μM. The root length of the seedlings was measured at days 3, 4, 5, 7 and 10. To calculate the percentage of growth inhibition, the slope of the regression lines for each concentration was used in the next equation: […]
To calculate the degree of tolerance to I3C, growth rates of WT and the I3CT1 strains were determined for increasing concentrations of I3C. Root length was measured at several time points over increasing I3C concentrations (FIG. 3). The growth rate of the WT and the I3CT1 transgenic lines was similar on MS; however, a growth rate of 3 and 2.3 times faster was observed on 400 μM I3C for the transgenic lines I3CT1^2 and I3CT1^8098 respectively. […] However, the growth rate of the WT was inhibited by 50% at about 50 μM while the growth rate of the I3CT1^2 and I3CR1^8098 transgenic lines was inhibited by 50% only when the I3C concentration was 300 μM and 200 μM respectively.
(§2) To test if overexpression of S30 causes tolerance specifically to I3C, or rather causes general tolerance to external chemical stress, root growth was tested with the addition of three groups of molecules to the growth medium: two subcategories of indole derivates: 1. Breakdown products of indol-3-acetaldoxime such as I3C, indol-3-acetic acid (IAA), and 3—Indoleacetonitril (IAN); and 2. breakdown products of I3C such as 3, 3Diindolylmethane (DIM), indole-3-carboxaldehyde (I3xA), and methyl Indole 3-carboxylate (MI3Cx). The third group contains benzoxazinoids: 2-Benzoxazolinon (BOA) and 6-Methoxy-2-benzoxazolinone (mBOA). Benzoxanoids are chemically unrelated to I3C, but with similar function of plant defense in gramineae (FIG. 4A). WT and the I3CT1 transgenic strains were assayed for root growth on 50% and 90% inhibition concentrations (IC) of the above molecules (Table 3).

I3CT1 transgenic strains = assay: Root growth of I3CT1 on 50% and 90% inhibition concentrations of plant defense molecules; format: in vivo, Arabidopsis thaliana; settings: FIG. 4B
Description: FIG. 4A: Plant defense molecules assayed: Breakdown products of indol-3-acetaldoxime (upper left panel), Breakdown products of I3C (lower panel), and benzoxazinoids (right panel). FIG. 4B: I3CT1 and WT were grown on 50% and 90% inhibition concentrations of the chemicals shown in μM. Data represent mean±SE.
as §2

WT (Col-0) Arabidopsis [2] = assay: Root length on I3C, IAA and mixtures (auxin antagonism), WT; format: in vivo, Arabidopsis thaliana
Description: I3CT1^2, I3CT1^8098 (FIG. 10A, designated as ICT1) and WT (FIG. 10B) plants were grown on three concentrations of I3C (50, 200, 500 μM), three concentrations of IAA (50, 200, 500 nM) and mixtures between the two. Root length was measured, and the mean root length of the transgenic lines I3CT1^2, I3CT1^8098 was calculated (presented as “I3CT1”). Three-way ANOVA was performed after SQRT transformation to obtain a normal distribution. FIG. 10C: The model of inhibition.
It was previously shown that I3C acts as an auxin antagonist on TIR1 (Katz et al., 2015b, ibid).

[3] = test system: I3CT1^2 transgenic line (S30 overexpressing); assay: Root growth-rate inhibition by I3C, transgenic line I3CT1^2; format: in vivo, Arabidopsis thaliana; settings: I3CT1^2, root growth rate
From the text: as §1, with “For root phenotype experiments, plates were placed vertically in the chambers.” left out
(§3) To calculate the percentage of growth inhibition, seeds were germinated on MS containing the following concentrations of I3C: 0, 50, 100, 200, 300, 400, 500 and 750 μM. The root length of the seedlings was measured at days 3, 4, 5, 7 and 10. […]
(§4) To calculate the degree of tolerance to I3C, growth rates of WT and the I3CT1 strains were determined for increasing concentrations of I3C. Root length was measured at several time points over increasing I3C concentrations (FIG. 3). […]

WT (Col-0) Arabidopsis [4] = settings: 400 μM I3C; cited from earlier work
[5] = test system: I3CT1^8098 transgenic line (S30 overexpressing); assay: Root growth-rate inhibition by I3C, transgenic line I3CT1^8098; format: in vivo, Arabidopsis thaliana; settings: I3CT1^8098 (printed I3CR1^8098)
From the text: as §1, with “For root phenotype experiments, plates were placed vertically in the chambers.” left out
as §3, §4

[6] = root elongation, Table 3, read-out: substance concentration inhibiting root elongation by 50%
[7] = Arabidopsis thaliana, root elongation, Table 3, read-out: substance concentration inhibiting root elongation by 50%
[8] = read-out: I3C concentration at which growth rate was inhibited by 50%

For `N#CCc1c[nH]c2ccccc12` [IAN, Indole 3-acetonitril], the “substance concentration inhibiting root elongation by 90%” value (WT (Col-0) Arabidopsis [1]; root elongation, Table 3) was 160 µM, the IC50 (WT (Col-0) Arabidopsis [1]; [6]) was 50 µM and the “tolerance of I3CT1 to the chemical (root growth)” value (“tolerance of I3CT1” for short) (I3CT1 transgenic strains) was “did not exhibit any pronounced tolerance”.
With `O=C(O)Cc1c[nH]c2ccccc12` [IAA, Indole-3-acetic acid] the IC50 (WT (Col-0) Arabidopsis [1]; [7]) was 50 µM, the “substance concentration inhibiting root elongation by 90%” value (WT (Col-0) Arabidopsis [1]; root elongation, Table 3) was 200 µM and the “tolerance of I3CT1” value (I3CT1 transgenic strains) was “tolerance of the I3CT1 line was limited to three chemicals; also recorded: slight tolerance”.
For `O=c1[nH]c2ccccc2o1` [BOA, 2-Benzoxazolinon], the IC50 (WT (Col-0) Arabidopsis [1]; Arabidopsis thaliana, read-out: substance concentration inhibiting root elongation by 50%) was 50 µM and the “substance concentration inhibiting root elongation by 90%” value (WT (Col-0) Arabidopsis [1]; root elongation, Table 3) was 400 µM.
For `COC(=O)c1c[nH]c2ccccc12` [MI3Cx, Methyl Indole 3-Carboxylate], the IC50 (WT (Col-0) Arabidopsis [1]; [7]) was 200 µM, the “substance concentration inhibiting root elongation by 90%” value (WT (Col-0) Arabidopsis [1]; root elongation, Table 3) was 375 µM and the “tolerance of I3CT1” value (I3CT1 transgenic strains) was “did not exhibit any pronounced tolerance”.
In the case of `c1ccc2c(Cc3c[nH]c4ccccc34)c[nH]c2c1` [DIM, 3,3′-Diindolylmethane], the IC50 (WT (Col-0) Arabidopsis [1]; [7]) is reported as 60 µM, the “substance concentration inhibiting root elongation by 90%” value (WT (Col-0) Arabidopsis [1]; root elongation, Table 3) is reported as 200 µM and the “tolerance of I3CT1” value (I3CT1 transgenic strains) is reported as “tolerance of the I3CT1 line was limited to three chemicals”.
With `O=Cc1c[nH]c2ccccc12` [I3xA, Indole 3-Carboxalldehyde] the “substance concentration inhibiting root elongation by 90%” value (WT (Col-0) Arabidopsis [1]; root elongation, Table 3) was 300 µM, the IC50 (WT (Col-0) Arabidopsis [1]; [6]) was 140 µM and the “tolerance of I3CT1” value (I3CT1 transgenic strains) was “did not exhibit any pronounced tolerance”.
In the case of `OCc1c[nH]c2ccccc12` [I3C, Indole 3-carbinol], the “I3C concentration of 90% inhibition” value (WT (Col-0) Arabidopsis [1]; WT, root growth rate) is reported as 400 µM, the IC50 (WT (Col-0) Arabidopsis [1]; WT, root growth rate, read-out: I3C concentration at which growth rate was inhibited by 50%) is reported as ~50 µM and the “I3C concentration of maximum inhibition” value (WT (Col-0) Arabidopsis [1]; all strains (WT and I3CT1 lines)) is reported as 750 µM. The “substance concentration inhibiting root elongation by 90%” value (WT (Col-0) Arabidopsis [1]; root elongation, Table 3) was 400 µM, the IC50 (WT (Col-0) Arabidopsis [1]; [6]) was 100 µM and the “tolerance of I3CT1” value (I3CT1 transgenic strains) was “tolerance of the I3CT1 line was limited to three chemicals”. The “inhibition of root elongation by I3C itself” value (WT (Col-0) Arabidopsis [2]; 500 μM I3C) was 95%, the “rescue of IAA root-elongation inhibition by I3C” value (WT (Col-0) Arabidopsis [2]; 50 and 200 μM I3C added to IAA, WT) was “rescues the IAA phenotype” and the “I3C concentration of 90% inhibition” value [3] was 750 µM. The IC50 [3, 8] was 300 µM, the “inhibition of root elongation” value (WT (Col-0) Arabidopsis [4]) was 95% and the “I3C concentration of 90% inhibition” value [5] was 500 µM. For the same compound, the IC50 [5, 8] was 200 µM.
For `COc1ccc2[nH]c(=O)oc2c1` [mBOA, 6-Methoxy-2-benzoxazolinone], the IC50 (WT (Col-0) Arabidopsis [1]; [7]) was 50 µM and the “substance concentration inhibiting root elongation by 90%” value (WT (Col-0) Arabidopsis [1]; root elongation, Table 3) was 400 µM.
